{"source": "patent US20230357261A1", "about": "“ARYL HYDROCARBON RECEPTOR LIGANDS AND THEIR ANALOGUES FOR THE PREVENTION AND TREATMENT OF INFLAMMATORY DISORDERS” (The Johns Hopkins University, priority 2020, published 2023)", "key": {"AHR [1]": {"test_system": "AHR", "experiment": "AHR activation in human ileal explant culture (Cyp1a1 qRT-PCR)", "assay_type": "cell-based", "settings": "200 μM I3C or 20 μM A18, 15 minutes pre-treatment then 6 hours", "description": "De-identified human ileal samples were collected via waiver of consent from the Office of Human Subjects Research Review Boards at Johns Hopkins University (IRB00094036), during surgery for NEC or at the time of stoma closure. For RNA isolation and qRT-PCR analysis, fresh samples were snapfrozen in liquid nitrogen immediately. For human explant culture, fresh ileum samples from NEC patients or patient undergoing stoma re-anastomosis were washed with sterile phosphate-buffered saline containing gentamycin (5 μg/mL), minced into 2- to 4-mm diameter pieces, and then cultured in Dulbecco's modified Eagle growth medium supplemented with 10% fetal bovine serum, 4 μg/mL human recombinant insulin and 100 μg/mL Primocin. […]\nTotal RNA was isolated using the RNeasy mini kit (Qiagen) and complementary DNA was synthesized from 0.5 μg RNA using QuantiTect Reverse Transcription kit (Qiagen) following the manufacturer's protocols. The mRNA quantification was performed on the Bio-Rad CFX96 Real-Time System (Bio-Rad) using iTaq™ universal SYBR® Green supermix (Bio-Rad) and the primers listed in Table 1. […] For microRNA isolation, freshly harvested, snap-frozen ileal tissue was subjected to total RNA isolation using the RNeasy plus universal mini kit (Qiagen) and miRNA was quantified using miScript PCR starter kit (Qiagen) following the manufacturer's protocols. […]"}, "[2]": {"test_system": "miR-146b, miR-223 and let-7i", "experiment": "Tlr4 regulatory microRNAs in mouse ileum", "assay_type": "in vivo", "settings": "I3C 25 mg/kg body weight/day for 24 hours", "method": "(§1) Total RNA was isolated using the RNeasy mini kit (Qiagen) and complementary DNA was synthesized from 0.5 μg RNA using QuantiTect Reverse Transcription kit (Qiagen) following the manufacturer's protocols. The mRNA quantification was performed on the Bio-Rad CFX96 Real-Time System (Bio-Rad) using iTaq™ universal SYBR® Green supermix (Bio-Rad) and the primers listed in Table 1. The relative mRNA expression levels were normalized against the expression of the housekeeping gene ribosomal protein lateral stalk subunit P0 (Rplp0). For microRNA isolation, freshly harvested, snap-frozen ileal tissue was subjected to total RNA isolation using the RNeasy plus universal mini kit (Qiagen) and miRNA was quantified using miScript PCR starter kit (Qiagen) following the manufacturer's protocols. The relative miRNA expression levels were normalized against the expression of housekeeping miRNA miR-191."}, "AHR [3]": {"test_system": "AHR", "experiment": "AHR activation in mouse intestine in vivo (Cyp1a1 expression by qRT-PCR)", "settings": "for expression of the AHR response gene Cyp1a1 in the small intestine: maternal diet with I3C throughout pregnancy, 25 mg/kg body weight/day", "method": "Hits were validated for activation of AHR signaling by oral gavage into neonatal C57/B16 mice (p11), and measuring the expression of the AHR activation reporter Cyp1a1 by qRT-PCR in the intestinal mucosa 24 hours later. The lead compound from these studies is herein labelled “A18”. Additionally, the mice were subjected to hypoxia (5% 02-95% N2) for 10 min in a hypoxia chamber (Billups-Rothenberg) twice daily for 4 days. […] To test the protective effect of breast milk on AHR signaling a NEC, human breast milk (Innovative Research) was supplemented to the formula at the final concentration of 5%. Endotoxemia was induced in neonatal mouse pups (p11) by administering 5 mg/kg lipopolysaccharides (LPS) via intraperitoneal injection, and ileal samples were harvested 6 hours after LPS treatments. […] I3C and A18 were administered to the pregnant mother daily until the offspring were studied further for experimental NEC or endotoxemia as above. […] The mRNA quantification was performed on the Bio-Rad CFX96 Real-Time System (Bio-Rad) using iTaqTM universal SYBR® Green supermix (Bio-Rad) and the primers listed in Table 1. The relative mRNA expression levels were normalized against the expression of the housekeeping gene ribosomal protein lateral stalk subunit P0 (Rplp0). For microRNA isolation, freshly harvested, snap-frozen ileal tissue was subjected to total RNA isolation using the RNeasy plus universal mini kit (Qiagen) and miRNA was quantified using miScript PCR starter kit (Qiagen) following the manufacturer's protocols. The relative miRNA expression levels were normalized against the expression of housekeeping miRNA miR-191."}, "mouse NEC model": {"test_system": "mouse NEC model", "experiment": "Experimental NEC in newborn mice (Example 1)", "assay_type": "in vivo"}, "TLR4 [4]": {"test_system": "TLR4", "experiment": "TLR4 signaling and expression in human ileal explant culture (LPS)", "assay_type": "cell-based", "settings": "200 μM I3C or 20 μM A18; LPS 50 μg/mL for 6 hours", "description": "De-identified human ileal samples were collected via waiver of consent from the Office of Human Subjects Research Review Boards at Johns Hopkins University (IRB00094036), during surgery for NEC or at the time of stoma closure. For RNA isolation and qRT-PCR analysis, fresh samples were snapfrozen in liquid nitrogen immediately. For human explant culture, fresh ileum samples from NEC patients or patient undergoing stoma re-anastomosis were washed with sterile phosphate-buffered saline containing gentamycin (5 μg/mL), minced into 2- to 4-mm diameter pieces, and then cultured in Dulbecco's modified Eagle growth medium supplemented with 10% fetal bovine serum, 4 μg/mL human recombinant insulin and 100 μg/mL Primocin. Human ilea explant cultures were then pre-treated with 200 μM I3C or 20 μM A18 for 15 minutes, and then with 50 μg/mL LPS for 6 hours, then processed for total RNA isolation followed by qRT-PCR.\nas §1"}, "TLR4 [5]": {"test_system": "TLR4", "experiment": "TLR4 signaling in mouse ileal enteroids (LPS-induced Tnf-a qRT-PCR)", "assay_type": "cell-based", "settings": "I3C or breast milk pre-treatment, LPS 50 μg/mL", "method": "(§2) Primary intestinal crypt cultures (enteroids) were generated from the ileum of neonatal (p7-p11) wild type and Ahr′ mice at as described, Neal et al., 2012, and maintained in Matrigel (Corning). The enteroids were digested and passed using TrypLE Express (Gibco) weekly, and used between passage 3 and 10 for all experiments. The enteroids were pre-treated with I3C ([…], 12 h), A18 (20 μM, 12 h) or human breast milk (100 μL/mL, Innovative Research, prepared by 5-minute-cenrifugation at 12,000 g and then filtration of supernatant through a 0.22-μm filter) and then treated with LPS (50 μg/mL) for 4 hours for further analysis.\n(§3) Primary intestinal crypt cultures (enteroids) were generated from the ileum of neonatal (p7-p11) mice at as described, Neal et al., 2012, and maintained in Matrigel (Corning). The enteroids were digested and passed using TrypLE Express (Gibco) weekly, and used between passage 3 and 10 for all experiments. The enteroids were pre-treated with tested compound (40 uM, overnight) and then treated with LPS (50 μg/mL) for 6 hours for further analysis.\n(§4) Total RNA was isolated using the RNeasy mini kit (Qiagen) and complementary DNA was synthesized from 0.5 μg RNA using QuantiTect Reverse Transcription kit (Qiagen) following the manufacturer's protocols. The mRNA quantification was performed on the Bio-Rad CFX96 Real-Time System (Bio-Rad) using iTaq™ universal SYBR® Green supermix (Bio-Rad) and the primers listed in Table 2. The relative mRNA expression levels were normalized against the expression of the housekeeping gene ribosomal protein lateral stalk subunit P0 (Rplp0)."}, "AHR [6]": {"test_system": "AHR", "experiment": "AHR activation in mouse ileal enteroids (Cyp1a1 qRT-PCR)", "assay_type": "cell-based", "set-up": "Cyp1a1 expression (AHR activation) in enteroids: dose or concentration left out as unconfirmed", "method": "as §2, §3, §4"}, "[7]": {"settings": "pups, maternal I3C during pregnancy"}}, "note": "“Also recorded” adds a separate entry of the source."}
{"compound": "OCc1c[nH]c2ccccc12", "note": "[I3C, indole-3-carbinol]", "values": [{"measurement": "Cyp1a1 expression in human intestinal explant cultures", "setting": "AHR [1]", "result": "induced the expression of Cyp1a1"}, {"measurement": "expression in the ileum of microRNAs miR-146b, miR-223 and let-7i", "setting": "[2]; Ahr^−/− mice", "result": "did not increase the expression of these microRNAs"}, {"measurement": "expression in the ileum of microRNAs miR-146b, miR-223 and let-7i", "setting": "[2]; wild type mice", "result": "significantly upregulated"}, {"measurement": "Cyp1a1 expression in the neonatal intestinal epithelium (ileum)", "setting": "AHR [3]; Ahr^Δlys mice, NEC model, I3C 25 mg/kg body weight/day for 4 days", "result": "induced the expression Cyp1a1; also recorded: moderate increase"}, {"measurement": "Cyp1a1 expression in the intestinal epithelium", "setting": "AHR [3]; Ahr^−/− newborn mice, fed I3C 25 mg/kg/day or A18 300 mg/kg/day", "result": "did not induce Cyp1a1"}, {"measurement": "Cyp1a1 expression in the intestinal epithelium", "setting": "AHR [3]; Il22^−/− mice, NEC model, I3C 25 mg/kg body weight/day for 4 days", "result": "induced the expression of Cyp1a1"}, {"measurement": "expression of the AHR response gene Cyp1a1 in the small intestine", "setting": "AHR [3]; fetus at e17.5", "result": "induced the expression of the AHR response gene Cyp1a1"}, {"measurement": "Cyp1a1 expression in suckling pups", "setting": "AHR [3]; p11, I3C administered to the lactating mother", "result": "induced Cyp1a1 expression"}, {"measurement": "expression of the AHR response gene Cyp1a1 in the small intestine", "setting": "AHR [3]; pregnant mother", "result": "induced the expression of the AHR response gene Cyp1a1"}, {"measurement": "Cyp1a1 expression in the intestinal epithelium", "setting": "AHR [3]; wild-type newborn (p11) mice, fed I3C 25 mg/kg/day or A18 300 mg/kg/day", "result": "induced Cyp1a1 expression"}, {"measurement": "Cyp1a1 expression in the neonatal intestinal epithelium (ileum)", "setting": "AHR [3]; wildtype mice, NEC model, I3C 25 mg/kg body weight/day for 4 days", "result": "induced the expression Cyp1a1; also recorded: multifold induction"}, {"measurement": "NEC severity", "setting": "mouse NEC model; Ahr^ΔIEC mice, I3C 25 mg/kg/day during NEC induction", "result": "relatively scant protective effect"}, {"measurement": "NEC severity", "setting": "mouse NEC model; Ahr^Δlys mice, I3C 25 mg/kg/day during NEC induction", "result": "moderate protective effect; also recorded: protection against NEC development"}, {"measurement": "NEC severity", "setting": "mouse NEC model; Ahr^−/− mice, oral to pups during NEC induction: I3C 25 mg/kg/day, A18 300 mg/kg/day, or human breast milk 5% in formula", "result": "no protective effect"}, {"measurement": "NEC severity", "setting": "mouse NEC model; Il22^−/− mice, I3C 25 mg/kg/day for 4 days", "result": "reduced NEC severity"}, {"measurement": "severity of experimental NEC in the pups", "setting": "mouse NEC model; oral I3C to the mother during pregnancy, 25 mg/kg body weight/day", "result": "significantly reduced the severity of experimental NEC"}, {"measurement": "expression of 116 in the intestinal epithelium (NEC)", "setting": "mouse NEC model; [7]", "result": "reduced expression of 116"}, {"measurement": "histological injury (terminal ileum, NEC)", "setting": "mouse NEC model; [7]", "result": "reduced histological injury"}, {"measurement": "intestinal epithelial apoptosis (TUNEL, NEC)", "setting": "mouse NEC model; [7]", "result": "reduced intestinal epithelial apoptosis"}, {"measurement": "NEC severity", "setting": "mouse NEC model; wild-type mice, oral to pups during NEC induction: I3C 25 mg/kg/day, A18 300 mg/kg/day, or human breast milk 5% in formula", "result": "significantly reduced the severity of NEC; also recorded: protection against NEC development"}, {"measurement": "LPS-induced Tnf-a expression in human intestinal explant cultures", "setting": "TLR4 [4]", "result": "reduced LPS-induced Tnf-a expression"}, {"measurement": "LPS-induced Tnfa expression in enteroids", "setting": "TLR4 [5]; Ahr^−/− enteroids", "result": "not"}, {"measurement": "LPS-induced Tnfa expression in enteroids", "setting": "TLR4 [5]; wild-type enteroids", "result": "significantly reduced the LPS-mediated induction of Tnfa"}, {"measurement": "Cyp1a1 expression (AHR activation) in enteroids", "setting": "AHR [6]; Ahr^−/− enteroids, I3C or human breast milk", "result": "not"}, {"measurement": "Cyp1a1 expression (AHR activation) in enteroids", "setting": "AHR [6]; wild-type enteroids, I3C (12 h) or human breast milk (100 μL/mL)", "result": "induced the expression of Cyp1a1"}]}
